Measured values as given in patent publication US20250042875A1, “PESTICIDALLY ACTIVE PYRIDAZINONE COMPOUNDS” (SYNGENTA CROP PROTECTION AG, priority 2021, published 2025).

Assays:
Assay type in all cases: in vivo
[1] = test system: Chilo suppressalis; assay: Activity against Chilo suppressalis (striped rice stemborer), artificial diet, L2 larvae; conditions: 144 h, application rate 200 ppm, 6 days after infestation, read-out: control in at least one of the three categories (mortality, anti-feedant effect, or growth inhibition)
Protocol: Example B1: Activity Against Chilo suppressalis (Striped Rice Stemborer)
24-well microtiter plates with artificial diet were treated with aqueous test solutions prepared from 10′000 ppm DMSO stock solutions by pipetting. After drying, the plates were infested with L2 larvae (6-8 per well). The samples were assessed for mortality, anti-feeding effect, and growth inhibition in comparison to untreated samples 6 days after infestation. Control of Chilo suppressalis by a test sample is given when at least one of the categories mortality, anti-feedant effect, and growth inhibition is higher than the untreated sample.

[2] = test system: Diabrotica balteata; assay: Activity against Diabrotica balteata (corn root worm), maize sprouts, L2 larvae; conditions: 96 h, application rate 200 ppm, 4 days after infestation, read-out: control in at least one of the two categories (mortality or growth inhibition)
Protocol: Example B2: Activity Against Diabrotica Balteata (Corn Root Worm)
Maize sprouts placed onto an agar layer in 24-well microtiter plates were treated with aqueous test solutions prepared from 10′000 ppm DMSO stock solutions by spraying. After drying, the plates were infested with L2 larvae (6 to 10 per well). The samples were assessed for mortality and growth inhibition in comparison to untreated samples 4 days after infestation.

[3] = test system: Myzus persicae; assay: Activity against Myzus persicae (green peach aphid), intrinsic activity; conditions: 120 h, test rate 12 ppm, 5 days after infestation
Text: Example B6: Activity Against Myzus persicae (Green Peach Aphid). Intrinsic Activity
Test compounds prepared from 10′000 ppm DMSO stock solutions were applied by pipette into 24-well microtiter plates and mixed with sucrose solution. The plates were closed with a stretched Parafilm. A plastic stencil with 24 holes was placed onto the plate and infested pea seedlings were placed directly on the Parafilm. The infested plate was closed with a gel blotting paper and another plastic stencil and then turned upside down. The samples were assessed for mortality 5 days after infestation.

[4] = test system: Plutella xylostella; assay: Activity against Plutella xylostella (diamond back moth), artificial diet, eggs; conditions: 192 h, application rate 200 ppm, 8 days after infestation, read-out: control in at least one of the two categories (mortality or growth inhibition)
Protocol: Example B7: Activity Against Plutella xylostella (Diamond Back Moth)
24-well microtiter plates with artificial diet were treated with aqueous test solutions prepared from 10′000 ppm DMSO stock solutions by pipetting. After drying, Plutella eggs were pipetted through a plastic stencil onto a gel blotting paper and the plate was closed with it. The samples were assessed for mortality and growth inhibition in comparison to untreated samples 8 days after infestation.

[5] = test system: Spodoptera littoralis; assay: Activity against Spodoptera littoralis (Egyptian cotton leaf worm), cotton leaf discs, L1 larvae; conditions: foliar, 72 h, application rate 200 ppm, 3 days after infestation, read-out: control in at least one of the three categories (mortality, anti-feedant effect, or growth inhibition)
Protocol: Example B8: Activity Against Spodoptera littoralis (Egyptian Cotton Leaf Worm)
Cotton leaf discs were placed onto agar in 24-well microtiter plates and sprayed with aqueous test solutions prepared from 10′000 ppm DMSO stock solutions. After drying the leaf discs were infested with five L1 larvae. The samples were assessed for mortality, anti-feeding effect, and growth inhibition in comparison to untreated samples 3 days after infestation. Control of Spodoptera littoralis by a test sample is given when at least one of the categories mortality, anti-feedant effect, and growth inhibition is higher than the untreated sample.

CC(NC(=O)c1cc(C(F)(F)F)cc(C(F)(F)F)c1)c1nccnc1-c1ccc(=O)n(C)n1 (stereo not drawn) [P3, N-[1-[3-(1-methyl-6-oxo-pyridazin-3-yl)pyrazin-2-yl]ethyl]-3,5-bis(trifluoromethyl)benzamide]
≥ 80%: percent control (mortality, anti-feedant effect or growth inhibition) at 200 ppm [1] | percent control (mortality or growth inhibition) at 200 ppm [2] | mortality at 12 ppm [3] | percent control (mortality or growth inhibition) at 200 ppm [4] | percent control (mortality, anti-feedant effect or growth inhibition) at 200 ppm [5]

CC(NC(=O)c1cc(Cl)cc(C(F)F)c1)c1nccnc1-c1ccc(=O)n(C)n1 (stereo not drawn) [P41, 3-chloro-5-(difluoromethyl)-N-[1-[3-(1-methyl-6-oxo-pyridazin-3-yl)pyrazin-2-yl]ethyl]benzamide]
≥ 80%: percent control (mortality, anti-feedant effect or growth inhibition) at 200 ppm [1] | percent control (mortality or growth inhibition) at 200 ppm [2] | mortality at 12 ppm [3] | percent control (mortality or growth inhibition) at 200 ppm [4] | percent control (mortality, anti-feedant effect or growth inhibition) at 200 ppm [5]

CC(NC(=O)c1cc(Br)cc(I)c1)c1nccnc1-c1ccc(=O)n(C)n1 (stereo not drawn) [P15, 3-bromo-5-iodo-N-[1-[3-(1-methyl-6-oxo-pyridazin-3-yl)pyrazin-2-yl]ethyl]benzamide]
≥ 80%: percent control (mortality, anti-feedant effect or growth inhibition) at 200 ppm [1] | mortality at 12 ppm [3] | percent control (mortality or growth inhibition) at 200 ppm [4] | percent control (mortality, anti-feedant effect or growth inhibition) at 200 ppm [5]

CC(NC(=O)c1cc(Br)cc(Br)c1)c1nccnc1-c1ccc(=O)n(C)n1 (stereo not drawn) [P13, 3,5-dibromo-N-[1-[3-(1-methyl-6-oxo-pyridazin-3-yl)pyrazin-2-yl]ethyl]benzamide]
≥ 80%: percent control (mortality, anti-feedant effect or growth inhibition) at 200 ppm [1] | percent control (mortality or growth inhibition) at 200 ppm [2] | mortality at 12 ppm [3] | percent control (mortality or growth inhibition) at 200 ppm [4] | percent control (mortality, anti-feedant effect or growth inhibition) at 200 ppm [5]

CC(NC(=O)c1cc(Cl)cc(I)c1)c1nccnc1-c1ccc(=O)n(C)n1 (stereo not drawn) [P12, 3-chloro-5-iodo-N-[1-[3-(1-methyl-6-oxo-pyridazin-3-yl)pyrazin-2-yl]ethyl]benzamide]
≥ 80%: percent control (mortality, anti-feedant effect or growth inhibition) at 200 ppm [1] | percent control (mortality or growth inhibition) at 200 ppm [2] | mortality at 12 ppm [3] | percent control (mortality or growth inhibition) at 200 ppm [4] | percent control (mortality, anti-feedant effect or growth inhibition) at 200 ppm [5]

CC(NC(=O)c1cc(Cl)cc(S(=O)(=O)C(F)(F)F)c1)c1nccnc1-c1ccc(=O)n(C)n1 (stereo not drawn) [P31, 3-chloro-N-[1-[3-(1-methyl-6-oxo-pyridazin-3-yl)pyrazin-2-yl]ethyl]-5-(trifluoromethylsulfonyl) benzamide]
≥ 80%: percent control (mortality, anti-feedant effect or growth inhibition) at 200 ppm [1] | mortality at 12 ppm [3] | percent control (mortality or growth inhibition) at 200 ppm [4] | percent control (mortality, anti-feedant effect or growth inhibition) at 200 ppm [5]

CC(NC(=O)c1cc(Br)nc(C2(C#N)CC2)c1)c1nccnc1-c1ccc(=O)n(C)n1 (stereo not drawn) [P38, 2-bromo-6-(1-cyanocyclopropyl)-N-[1-[3-(1-methyl-6-oxo-pyridazin-3-yl)pyrazin-2-yl]ethyl]pyridine-4-carboxamide]
≥ 80%: percent control (mortality, anti-feedant effect or growth inhibition) at 200 ppm [1] | percent control (mortality or growth inhibition) at 200 ppm [4] | percent control (mortality, anti-feedant effect or growth inhibition) at 200 ppm [5]

CC(NC(=O)c1cc(Br)cc(C(F)(F)F)c1)c1nccnc1-c1cn(C)c(=O)cn1 (stereo not drawn) [P48, 3-bromo-N-[1-[3-(4-methyl-5-oxo-pyrazin-2-yl)pyrazin-2-yl]ethyl]-5-(trifluoromethyl)benzamide]
≥ 80%: percent control (mortality, anti-feedant effect or growth inhibition) at 200 ppm [1] | percent control (mortality or growth inhibition) at 200 ppm [2] | mortality at 12 ppm [3] | percent control (mortality or growth inhibition) at 200 ppm [4] | percent control (mortality, anti-feedant effect or growth inhibition) at 200 ppm [5]
